Results from patent publication US20060069132A1, “Azolecarboxamide herbicides” (priority 2004, published 2006).
Read-outs that look alike come from different tables or passages of the source.

Experiments:
cocklebur = assay: Test B pre-/postemergence herbicide test; assay type: in vivo, Xanthium strumarium; details: Xanthium strumarium; for pest or weed control at 125 g/ha: 125 g ai/ha; for pest or weed control at 500 g/ha: 500 g ai/ha
Outline: (§1)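 Seeds were planted and treated preemergence with compounds formulated in a non-phytotoxic solvent mixture containing surfactant, while plants at the 1- to 4-leaf stage (2 to 18 cm) received postemergence sprays. Flooded paddy plants were grown to the 2-leaf stage. After 13 to 15 days in a greenhouse, injury was visually rated 0–100 against untreated controls.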

wild oat = assay: Test B postemergence herbicide test; assay type: in vivo, Avena fatua; details: Avena fatua, post-emergence, 336 h, postemergence, read-out: Oat, Wild plant response rating
Outline: (§2)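 Scale 0–100: zero equals no visible effect, 100 complete control, judged by eye relative to controls. Timing: 13 to 15 days in greenhouse post-treatment. Growth stage at spraying: two leaves (paddy) or one to four leaves, 2–18 cm (postemergence).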

blackgrass = assay: Test B postemergence herbicide test; assay type: in vivo, Alopecurus myosuroides; details: Alopecurus myosuroides, post-emergence, 336 h, postemergence, visual rating, scale 0 (no effect) to 100 (complete control), read-out: Blackgrass plant response rating
Outline: (§3)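 Postemergence plants were sprayed with formulated test chemicals at 2 to 18 cm height (1- to 4-leaf stage); paddy species were grown to the 2-leaf stage. After 13 to 15 days in a greenhouse, injury was rated visually against untreated controls on a 0–100 scale (0 = no effect, 100 = complete control).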

rice = assay: Test B flooded paddy test; assay type: in vivo, Oryza sativa; details: Oryza sativa, 336 h, 1000 g ai/ha, scale 0 to 100 (0 no effect, 100 complete control), read-out: Rice plant response rating
Outline: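 Each value is a visual 0–100 response rating taken against controls 13 to 15 days after treatment in the greenhouse. Plants received formulated chemical postemergence at the 1- to 4-leaf stage or, in flooded paddy, at the 2-leaf stage.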

barnyardgrass [1] = assay: Test B flooded paddy test; assay type: in vivo, Echinochloa crus-galli; details: Echinochloa crus-galli, 336 h, 1000 g ai/ha, scale 0 to 100 (0 no effect, 100 complete control), read-out: Barnyardgrass plant response rating
Outline: as §3

wheat = assay: Test B postemergence herbicide test; assay type: in vivo, Triticum aestivum; details: Triticum aestivum, post-emergence, 336 h, postemergence, read-out: Wheat plant response rating
Outline: as §2

morningglory = assay: Test B pre-/postemergence herbicide test; assay type: in vivo, Ipomoea coccinea; details: Ipomoea, 336 h; for pest or weed control at 125 g/ha: 125 g ai/ha; for pest or weed control at 500 g/ha: 500 g ai/ha
Outline: as §1

Surinam grass = assay: Test B pre-/postemergence herbicide test; assay type: in vivo, Urochloa decumbens; details: Urochloa decumbens; for pest or weed control at 125 g/ha: 125 g ai/ha; for pest or weed control at 500 g/ha: 500 g ai/ha
Outline: (§4)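 Evaluation is visual, comparing treated with control plants on a scale where 0 means no effect and 100 means full control. Treatments were preemergence, or postemergence on seedlings 2–18 cm tall, and held 13–15 days in the greenhouse.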

velvetleaf = assay: Test B pre-/postemergence herbicide test; assay type: in vivo, Abutilon theophrasti; details: Abutilon theophrasti, 336 h; for pest or weed control at 125 g/ha: 125 g ai/ha; for pest or weed control at 500 g/ha: 500 g ai/ha
Outline: as §4

large crabgrass = assay: Test B pre-/postemergence herbicide test; assay type: in vivo, Digitaria sanguinalis; details: Digitaria sanguinalis; for pest or weed control at 125 g/ha: 125 g ai/ha; for pest or weed control at 500 g/ha: 500 g ai/ha
Outline: as §4

barnyardgrass [2] = assay: Test B pre-/postemergence herbicide test; assay type: in vivo, Echinochloa crus-galli; details: Echinochloa crus-galli; for pest or weed control at 125 g/ha: 125 g ai/ha; for pest or weed control at 500 g/ha: 500 g ai/ha
Outline: as §1

giant foxtail = assay: Test B pre-/postemergence herbicide test; assay type: in vivo, Setaria faberi; details: Setaria faberi, 336 h; for pest or weed control at 125 g/ha: 125 g ai/ha; for pest or weed control at 500 g/ha: 500 g ai/ha
Outline: as §4

pigweed = assay: Test B pre-/postemergence herbicide test; assay type: in vivo, Amaranthus retroflexus; details: Amaranthus retroflexus, 336 h; for pest or weed control at 125 g/ha: 125 g ai/ha
Outline: as §4

lambsquarters = assay: Test B pre-/postemergence herbicide test; assay type: in vivo, Chenopodium album; details: Chenopodium album, post-emergence, 336 h, postemergence, read-out: Lambsquarters plant response rating
Outline: as §4

[3] = tested on: small flower umbrella sedge; assay: Test B flooded paddy test; assay type: in vivo, Cyperus difformis; details: Cyperus difformis, 336 h, 1000 g ai/ha, scale 0 to 100 (0 no effect, 100 complete control), read-out: Sedge, Umbrella plant response rating
Outline: as §3

[4] = post-emergence, postemergence, visual rating, scale 0 (no effect) to 100 (complete control), read-out: Cocklebur plant response rating
[5] = 125 g ai/ha, visual rating, scale 0 (no effect) to 100 (complete control)
[6] = 500 g ai/ha, scale 0 to 100, 0 is no effect, 100 is complete control
[7] = post-emergence, postemergence, visual rating, scale 0 (no effect) to 100 (complete control), read-out: Barnyardgrass plant response rating

Question: What does the source list for `CCN(CC)C(=O)c1cncc(NC(=O)c2cc(C(C)(C)C)nn2CC)c1` [Compound 261, 5-[[[3-(1,1-dimethylethyl)-1-ethyl-1H-pyrazol-5-yl]carbonyl]amino]-N,N-diethyl-3-pyridinecarboxamide]?
Answer: pest or weed control at 125 g/ha (cocklebur; [4]): 0%; pest or weed control at 500 g/ha (cocklebur; [4]): 10%; pest or weed control at 125 g/ha (cocklebur; pre-emergence, 0 = no effect, 100 = complete control, read-out: Cocklebur plant response rating (0 to 100 scale)): 0%; pest or weed control at 500 g/ha (cocklebur; pre-emergence, visual rating, 0 = no effect, 100 = complete control, read-out: Plant response rating, Cocklebur): 0%; pest or weed control at 125 g/ha (wild oat; [5]): 0%; pest or weed control at 500 g/ha (wild oat; [6]): 20%; pest or weed control at 125 g/ha (blackgrass; 125 g ai/ha): 0%; pest or weed control at 500 g/ha (blackgrass; 500 g ai/ha): 20%; plant injury at 1000 g/ha (rice): 60%; pest or weed control at 1000 g/ha (barnyardgrass [1]): 0%; plant injury at 125 g/ha (wheat; [5]): 0%; plant injury at 500 g/ha (wheat; [6]): 20%; pest or weed control at 125 g/ha (morningglory; post-emergence, postemergence, visual rating, scale 0 (no effect) to 100 (complete control), read-out: Morningglory plant response rating): 0%; pest or weed control at 500 g/ha (morningglory; post-emergence, postemergence, scale 0 to 100, 0 is no effect, 100 is complete control, read-out: Morningglory plant response rating): 0%; pest or weed control at 125 g/ha (morningglory; pre-emergence, 0 = no effect, 100 = complete control, read-out: Morningglory plant response rating (0 to 100 scale)): 0%; pest or weed control at 500 g/ha (morningglory; pre-emergence, visual rating, 0 = no effect, 100 = complete control, read-out: Plant response rating, Morningglory): 0%; pest or weed control at 125 g/ha (Surinam grass; post-emergence, postemergence, visual rating, scale 0 (no effect) to 100 (complete control), read-out: Surinam Grass plant response rating): 0%; pest or weed control at 500 g/ha (Surinam grass; post-emergence, postemergence, scale 0 to 100, 0 is no effect, 100 is complete control, read-out: Surinam Grass plant response rating): 20%; pest or weed control at 125 g/ha (Surinam grass; pre-emergence, 0 = no effect, 100 = complete control, read-out: Surinam Grass plant response rating (0 to 100 scale)): 0%; pest or weed control at 500 g/ha (Surinam grass; pre-emergence, visual rating, 0 = no effect, 100 = complete control, read-out: Plant response rating, Surinam Grass): 0%; pest or weed control at 125 g/ha (velvetleaf; post-emergence, postemergence, visual rating, scale 0 (no effect) to 100 (complete control), read-out: Velvetleaf plant response rating): 0%; pest or weed control at 500 g/ha (velvetleaf; post-emergence, postemergence, scale 0 to 100, 0 is no effect, 100 is complete control, read-out: Velvetleaf plant response rating): 0%; pest or weed control at 125 g/ha (velvetleaf; pre-emergence, 0 = no effect, 100 = complete control, read-out: Velvetleaf plant response rating (0 to 100 scale)): 0%; pest or weed control at 500 g/ha (velvetleaf; pre-emergence, visual rating, 0 = no effect, 100 = complete control, read-out: Plant response rating, Velvetleaf): 20%; pest or weed control at 125 g/ha (large crabgrass; post-emergence, postemergence, visual rating, scale 0 (no effect) to 100 (complete control), read-out: Crabgrass, Large plant response rating): 0%; pest or weed control at 500 g/ha (large crabgrass; post-emergence, postemergence, scale 0 to 100, 0 is no effect, 100 is complete control, read-out: Crabgrass, Large plant response rating): 10%; pest or weed control at 125 g/ha (large crabgrass; pre-emergence, 0 = no effect, 100 = complete control, read-out: Crabgrass, Large plant response rating (0 to 100 scale)): 50%; pest or weed control at 500 g/ha (large crabgrass; pre-emergence, visual rating, 0 = no effect, 100 = complete control, read-out: Plant response rating, Crabgrass, Large): 50%; pest or weed control at 125 g/ha (barnyardgrass [2]; [7]): 0%; pest or weed control at 500 g/ha (barnyardgrass [2]; [7]): 0%; pest or weed control at 125 g/ha (barnyardgrass [2]; pre-emergence, 0 = no effect, 100 = complete control, read-out: Barnyardgrass plant response rating (0 to 100 scale)): 0%; pest or weed control at 500 g/ha (barnyardgrass [2]; pre-emergence, visual rating, 0 = no effect, 100 = complete control, read-out: Plant response rating, Barnyardgrass): 20%; pest or weed control at 125 g/ha (giant foxtail; post-emergence, postemergence, visual rating, scale 0 (no effect) to 100 (complete control), read-out: Foxtail, Giant plant response rating): 0%; pest or weed control at 500 g/ha (giant foxtail; post-emergence, postemergence, scale 0 to 100, 0 is no effect, 100 is complete control, read-out: Foxtail, Giant plant response rating): 0%; pest or weed control at 125 g/ha (giant foxtail; pre-emergence, 0 = no effect, 100 = complete control, read-out: Foxtail, Giant plant response rating (0 to 100 scale)): 0%; pest or weed control at 500 g/ha (giant foxtail; pre-emergence, visual rating, 0 = no effect, 100 = complete control, read-out: Plant response rating, Foxtail, Giant): 0%; pest or weed control at 125 g/ha (pigweed; post-emergence, postemergence, visual rating, scale 0 (no effect) to 100 (complete control), read-out: Pigweed plant response rating): 20%; pest or weed control at 500 g/ha (pigweed; post-emergence, postemergence, 500 g ai/ha, scale 0 to 100, 0 is no effect, 100 is complete control, read-out: Pigweed plant response rating): 70%; pest or weed control at 125 g/ha (pigweed; pre-emergence, 0 = no effect, 100 = complete control, read-out: Pigweed plant response rating (0 to 100 scale)): 0%; pest or weed control at 125 g/ha (lambsquarters; [5]): 10%; pest or weed control at 500 g/ha (lambsquarters; [6]): 60%; pest or weed control at 1000 g/ha [3]: 30%
